Measurements published in patent publication US9790180B2, “Piperidine derivatives as HDAC1/2 inhibitors” (Acetylon Pharmaceuticals, Inc., priority 2014, dated 2017).
Converted amounts (≈) assume the structure as drawn.

Key:
[1] = system: fetal β-like globin (HbG, γ); test: Fetal globin induction assay in CD34+ cells isolated from human bone marrow; assay type: cell-based
Procedure: CD34+ cells isolated from human bone marrow were cultured in vitro using a method described by Bradner J E (Proc Natl Acad Sci USA. 2010 Jul. 13; 107(28):12617-22), which consists of a 7 day expansion phase in media that supports differentiation of cells towards the erythroid lineage followed by a differentiation phase for 3 days where erythroid cell development continues. At the end of the differentiation period these cells are primarily late erythroblasts. mRNA levels were determined by quantitative real time PCR using primer/probe sets designed to adult major β-globin (β), adult minor β-globin (δ), fetal β-like globin (HbG, γ), and embryonic β-like globin (ε). Protein levels were determined by flow cytometry using fluorescent antibodies against fetal hemoglobin (HbF) or adult hemoglobin (HbA).
In the experiment shown in FIG. 3, cells were differentiated in the presence of vehicle (DMSO) 0.3, 1 and 3 μM of Compound A, and of 0.3, 1, and 3 μM of Compound 003. In the experiment shown in FIG. 6, cells were differentiated in the presence of vehicle (DMSO) 0.3, 1 and 3 μM of Compound A, and of 0.3, 1, and 3 μM of Compound 005. Globin mRNA levels were determined at day 3 of differentiation.

[2] = system: human peripheral blood lymphocytes (HPBL); test: Micronucleus formation assay; assay type: cell-based; conditions: In vitro tox
Procedure: Genotoxicity was further evaluated by micronucleus formation assay in human peripheral blood lymphocytes (HPBL). HPBL were obtained from healthy donors and exposed to Compound 003 at […] for 4 hours with or without S9 activation. The cells were washed with PBS and incubated in complete medium with 6 μg/ml cytocholasin B for 24 hours. The cells were then lysed, fixed, and mounted on microscope slides. The number of mononucleated, binucleated, and micronucleated cells was counted under blinded conditions.

[3] = system: CYP1A2, CYP2C9, CYP2C19, CYP3A4, CYP2D6; test: Cyp inhibition in human liver microsomes; assay type: in vitro ADME; conditions: In vitro tox; human liver microsomes
Procedure: For Cyp inhibition, human live microsomes from BD Gentest were incubated with Compound 003 (10, 3.33, 1.11, 0.37, 0.12, 0.04, 0.01 μM) and substrate (CYP1A2: Phenacetin at 30 μM; CYP2C9: Diclofenac at 10 μM; CYP2C19: S-Mephenytoin at 35 μM; CYP3A4: Midazolam at 5 μM and Testosterone at 80 μM; CYP2D6: Bufuralol at 10 μM) for the following incubation times: CYP1A2, 2C9, 2D6: 10 minutes, 37° C.; CYP2C19: 45 minutes, 37° C.; CYP3A4: 5 minutes, 37° C. Substrate conversion was measured by liquid chromatography/mass spectrometry/mass spectrometry (LC/MS/MS). Inhibition was calculated by curve fitting in Graph Pad Prism.

[4] = Solubility; assay type: physicochemical
[5] = biological target: HDAC1 (Homo sapiens (Human), UniProt Q13547); test: HDAC enzyme assay, HDAC1; assay type: biochemical; conditions: 24 hours pre-incubation with enzyme; read-out: IC50 (nM) HDAC1
HDAC1, sequence (Q13547 whole entry): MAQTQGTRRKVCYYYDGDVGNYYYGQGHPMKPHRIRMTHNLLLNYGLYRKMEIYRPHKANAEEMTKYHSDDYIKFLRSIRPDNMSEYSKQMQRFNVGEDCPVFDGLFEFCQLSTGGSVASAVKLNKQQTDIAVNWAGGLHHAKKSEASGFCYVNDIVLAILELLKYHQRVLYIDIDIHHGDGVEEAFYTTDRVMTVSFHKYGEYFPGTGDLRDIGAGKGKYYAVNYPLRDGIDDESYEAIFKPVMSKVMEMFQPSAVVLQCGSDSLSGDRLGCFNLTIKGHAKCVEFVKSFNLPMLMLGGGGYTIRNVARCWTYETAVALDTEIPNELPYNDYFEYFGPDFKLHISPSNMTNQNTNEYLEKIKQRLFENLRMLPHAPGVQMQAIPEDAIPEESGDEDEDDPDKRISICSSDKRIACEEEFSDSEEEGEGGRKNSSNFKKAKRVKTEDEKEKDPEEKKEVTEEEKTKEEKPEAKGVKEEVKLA
Procedure: (§1) Compounds for testing were diluted in DMSO to 50 fold the final concentration and a ten point three fold dilution series was made. The compounds were diluted in assay buffer (50 mM HEPES, pH 7.4, 100 mM KCl, 0.001% Tween-20, 0.05% BSA, 20 μM tris(2-carboxyethyl)phosphine) to 6 fold their final concentration. The HDAC enzymes (purchased from BPS Biosciences) were diluted to 1.5 fold their final concentration in assay buffer and pre-incubated with the compounds for 24 hours prior to addition of the substrate.
(§2) The substrate tripeptide substrate 3 (synthesized in house) for each enzyme was equal to the Km as determined by a substrate titration curve. The substrates were diluted in assay buffer at 6× their final concentration with 0.3 μM sequencing grade trypsin (Sigma). The substrate/trypsin mix was added to the enzyme/compound mix, the plate was shaken for 60 seconds and placed into a Spectramax M5 microtiter plate reader. The development of fluorescence was monitored for 30 min and the linear rate of the reaction was calculated. The IC50 was determined using Graph Pad Prism by a four parameter curve fit. The IC50 values obtained for the compounds of this invention are found in Table 1. Examples of the curves are found in FIGS. 1 and 4.

[6] = biological target: hERG channel (Homo sapiens (Human), UniProt Q12809); test: hERG assay (QPatch, CHO cell line expressing hERG channels); assay type: cell-based; conditions: In vitro tox
hERG channel, sequence (Q12809 whole entry): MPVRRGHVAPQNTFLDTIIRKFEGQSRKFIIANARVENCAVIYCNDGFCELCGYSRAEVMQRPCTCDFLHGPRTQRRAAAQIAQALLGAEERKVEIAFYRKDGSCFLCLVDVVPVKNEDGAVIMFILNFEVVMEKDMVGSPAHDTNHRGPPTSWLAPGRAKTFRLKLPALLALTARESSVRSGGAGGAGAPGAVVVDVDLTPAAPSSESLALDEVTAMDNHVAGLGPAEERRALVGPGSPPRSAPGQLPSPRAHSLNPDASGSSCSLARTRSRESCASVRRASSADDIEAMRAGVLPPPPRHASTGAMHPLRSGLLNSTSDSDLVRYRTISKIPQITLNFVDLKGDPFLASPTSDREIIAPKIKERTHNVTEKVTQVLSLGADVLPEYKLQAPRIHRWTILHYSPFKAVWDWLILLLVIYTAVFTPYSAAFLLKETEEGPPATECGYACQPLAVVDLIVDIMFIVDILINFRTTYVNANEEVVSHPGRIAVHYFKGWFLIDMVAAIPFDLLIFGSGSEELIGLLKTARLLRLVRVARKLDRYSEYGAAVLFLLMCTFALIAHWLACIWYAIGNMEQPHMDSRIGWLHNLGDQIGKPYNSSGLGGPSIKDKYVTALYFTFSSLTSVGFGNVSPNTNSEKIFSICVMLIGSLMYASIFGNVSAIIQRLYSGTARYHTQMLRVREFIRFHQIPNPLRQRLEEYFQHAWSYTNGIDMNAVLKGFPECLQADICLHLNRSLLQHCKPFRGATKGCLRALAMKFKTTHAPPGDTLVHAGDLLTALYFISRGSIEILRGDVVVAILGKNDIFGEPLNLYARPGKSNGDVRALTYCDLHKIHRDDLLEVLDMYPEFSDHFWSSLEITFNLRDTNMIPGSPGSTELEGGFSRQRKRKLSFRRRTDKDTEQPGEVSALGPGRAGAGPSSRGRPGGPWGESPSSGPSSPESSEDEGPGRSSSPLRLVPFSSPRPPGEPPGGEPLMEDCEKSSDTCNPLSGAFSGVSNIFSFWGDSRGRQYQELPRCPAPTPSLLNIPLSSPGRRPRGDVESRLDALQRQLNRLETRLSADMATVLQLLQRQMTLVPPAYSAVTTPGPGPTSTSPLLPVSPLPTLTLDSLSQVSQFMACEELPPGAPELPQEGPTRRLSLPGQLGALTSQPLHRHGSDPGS
Procedure: For hERG assays, a CHO cell line stably transfected with hERG cDNA and expressing hERG channels were seeded into a QPatch plate (Sophion) at a density of 3-8×10^6 cells/ml. The cells were voltage clamped at a holding potential of −80 mV. The hERG current was activated by depolarizing at +20 mV for 5 sec, after which the current was taken back to −50 mV for 5 sec to remove the inactivation and observe the deactivating tail current. The maximum amount of tail current size was used to determine hERG current amplitude. Six doses (30, 10, 3, 1, 0.3 and 0.1 μM) of Compound 003 were chosen to obtain fitting curves and IC50. Data were analyzed using Assay Software provided by Sophion and Graphpad Prism.

[7] = system: bacterial tester strains TA98, TA100, TA1535 and TA97a and E. coli tester strain WP2 uvrA; test: Ames genotoxicity (bacterial reverse mutation); conditions: In vitro tox
Procedure: For genotoxicity, bacterial tester strains TA98, TA100, TA1535 and TA97a as described by Ames et al. (1975) and the E. coli tester strain WP2 uvrA as described by Green and Muriel (1976) were incubated with Compound 003 at 250, 75, 25, 7.5, 2.5, 0.75, 0.25, and 0.075 μg/well in 24 well plates either with or without liver homogenate (S9) purchased commercially (MolTox; Boone, N.C.) prepared from male Sprague Dawley rats that have been injected intraperitonealy with Aroclor 1254 (200 mg/mL in corn oil), at a dose of 500 mg/kg, 5 days before sacrifice. Mutagenicity is evaluated by counting the number of colonies that form on non-permissive media.

[8] = biological target: HDAC3 (Homo sapiens (Human), UniProt O15379); test: HDAC enzyme assay, HDAC3; assay type: biochemical; conditions: 24 hours pre-incubation with enzyme; read-out: IC50 (nM) HDAC3
HDAC3, sequence (O15379 whole entry): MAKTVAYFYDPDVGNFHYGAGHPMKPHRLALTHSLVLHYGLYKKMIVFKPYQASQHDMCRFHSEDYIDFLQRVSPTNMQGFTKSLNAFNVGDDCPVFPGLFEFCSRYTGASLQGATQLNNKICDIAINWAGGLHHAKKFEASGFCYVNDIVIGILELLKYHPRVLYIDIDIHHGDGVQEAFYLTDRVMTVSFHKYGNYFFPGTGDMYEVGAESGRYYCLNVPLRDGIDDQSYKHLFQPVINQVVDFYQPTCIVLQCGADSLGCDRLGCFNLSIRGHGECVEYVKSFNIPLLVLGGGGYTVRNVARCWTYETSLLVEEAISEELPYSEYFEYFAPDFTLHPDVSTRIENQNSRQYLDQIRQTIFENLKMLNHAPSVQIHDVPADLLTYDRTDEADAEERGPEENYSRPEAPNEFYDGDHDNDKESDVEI
HDAC3, sequence (Q9Y618 395-489 partner): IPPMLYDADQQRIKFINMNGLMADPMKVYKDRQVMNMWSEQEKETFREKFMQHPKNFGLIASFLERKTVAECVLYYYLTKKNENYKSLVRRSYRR
Procedure: as §1, §2

[9] = biological target: HDAC2 (Homo sapiens (Human), UniProt Q92769); test: HDAC enzyme assay, HDAC2; assay type: biochemical; conditions: 24 hours pre-incubation with enzyme; read-out: IC50 (nM) HDAC2
HDAC2, sequence (Q92769 whole entry): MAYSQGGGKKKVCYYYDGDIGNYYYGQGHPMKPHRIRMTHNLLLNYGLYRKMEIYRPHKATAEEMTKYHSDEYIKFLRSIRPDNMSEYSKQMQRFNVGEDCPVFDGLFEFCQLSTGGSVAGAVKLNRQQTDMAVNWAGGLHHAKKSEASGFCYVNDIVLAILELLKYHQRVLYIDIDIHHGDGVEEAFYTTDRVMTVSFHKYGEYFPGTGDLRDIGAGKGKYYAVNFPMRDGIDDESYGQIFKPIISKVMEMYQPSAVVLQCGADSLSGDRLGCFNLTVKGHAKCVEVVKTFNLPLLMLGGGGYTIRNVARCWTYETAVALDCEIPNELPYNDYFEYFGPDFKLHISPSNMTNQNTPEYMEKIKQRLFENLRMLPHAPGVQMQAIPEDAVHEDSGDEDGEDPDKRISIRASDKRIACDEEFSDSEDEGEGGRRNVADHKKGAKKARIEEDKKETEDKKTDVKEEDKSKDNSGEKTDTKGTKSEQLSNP
Procedure: as §1, §2

Structure (SMILES): CN1CCN(C(=O)N2CCC(Nc3ccc(C(=O)Nc4cc(-c5cccs5)ccc4N)cc3)CC2)CC1 [Compound 005]
- Cell based assay potency ([1]; lowest concentration to achieve a 2 fold increase in fetal globin gene expression over baseline): 1000 nM
- induction of % HbG ([1]; primary erythroid progenitors, 3 days differentiation (FIG. 6)): equivalent dose and time-dependent induction
- MN [2]: Neg
- Cyp [3]: >10 µM
- solubility [4]: 13.8 µM (≈ 7.16 µg/mL)
- IC50 [5]: 1.2 nM
- hERG [6]: 13.8 µM
- Ames [7]: Neg
- IC50 [8]: 82 nM
- IC50 [9]: 4.9 nM
